Results as given in PMC6405172, “In vitro activity and mode of action of phenolic compounds on Leishmania donovani” (PLoS Neglected Tropical Diseases, 2019).
Where two headings read alike, the source gives them in different places.

How the values were obtained:
Format in all cases: cell-based
[1] = tested on: Leishmania donovani promastigotes; assay: Promastigote viability assay (MTT); conditions: for Selectivity Index (CC50/IC50), promastigotes: CC50 Raw 264.7 / IC50 promastigotes; for IC50: Leishmania donovani, read-out: Promastigotes IC50 (μM) ± SD
Description: The MTT assay was done as previously described. Briefly, promastigotes (2 x 10^5 cells) were cultured in freshly prepared M-199 medium supplemented with 10% heat inactivated fetal bovine serum in the presence or absence of varying concentrations of the phenolic compounds (0–50 μg/mL) for 72 hours at 25°C. Amphotericin B (0–50 μg/mL) and deferoxamine (0–50 μg/mL) were used as positive controls. After incubation, 5 mg/mL MTT solution was added to the promastigotes in each well and incubated for 3 hours at 25°C. In this assay, the yellow tetrazolium MTT dye was reduced to insoluble formazan crystals (purple color) in living cells using NADH as their reducing agent. Formazan crystals formed after incubation were solubilized with acidified isopropanol and incubated at 37°C for 30 min. The change in color from yellow to purple was read at an absorbance of 570 nm using Thermo Scientific Varioskan LUX. The cell viability and IC50 were determined from the concentration response curve generated using GraphPad Prism 6.0 Software.

[2] = Cytotoxicity of compounds on mammalian cells (MTT); conditions: mouse, Raw 264.7 cells, read-out: Macrophages CC50 (μM) ±SD
Description: Raw 264.7 cells were seeded into 96-well plates at (1 x 10^6 cells) in DMEM supplemented with 10% FBS, 100 μg/mL streptomycin, 100 u/mL penicillin-G, 2g/L NaHCO3 and incubated at 37°C for 24 hours in 5% CO2. The cells were treated with 0–50 μg/mL concentrations of the phenolic compounds for 48 hours at 37°C in 5% CO2. Deferoxamine and amphotericin B at 0–50 μg/mL concentrations were used as positive controls. Cell viability was estimated by measuring the mitochondria oxidative activity by MTT assay and absorbance was read at 570 nm using Thermo Scientific Varioskan LUX. Selectivity index (SI) was calculated as the ratio of the CC50 to IC50 values.

[3] = tested on: Leishmania donovani intracellular amastigotes; assay: Intracellular amastigote assay in infected RAW 264.7 cells; conditions: for Selectivity Index (CC50/IC50), amastigotes: CC50 Raw 264.7 / IC50 intracellular amastigotes; for IC50: Leishmania donovani
Description: Amastigote cultures were prepared as reported by Jain and colleagues. Briefly, Raw 264.7 cells (4 x 10^7 cells) were seeded in 4 chamber slides and 1 x 10^7 cells in 96 well plates and incubated for 24 hours at 37°C in 5% CO2. The RAW 264.7 cells were infected with metacyclic promastigotes (1 x 10^8 cells) at an infection ratio of 1:10 macrophage: parasites and incubated for 24 hours at 37°C in 5% CO2. The overlying medium was removed, and the monolayer intracellular amastigotes were carefully washed four times with serum free M199 to remove free parasites. Freshly prepared M199 containing 10% FBS and the test compounds at concentrations ranging from 0–50 μg/mL were added to the infected cells and incubated for 48 hours at 37°C in 5% CO2. Triplicate incubations were performed in all the experiments. The chamber slides were washed thrice after incubation with M199 without FBS. The slides were then fixed in absolute methanol for 30 sec, rehydrated in 1x PBS for 5 min and stained with DAPI for 15 min. The slides were viewed by fluorescence microscopy and the number of infected macrophages counted using ImageJ Software to determine the infectivity index and IC50 values for amastigotes.
The infected RAW 264.7 cells in the 96 wells microtiter plates were also incubated for 48 hours and washed thrice as above. Sodium dodecyl sulfate (SDS) of concentration 0.05% was added to the wells for 30 sec for controlled lysis with M199 and 10% FBS. After the 30 sec, M199 with 10% FBS was added and the plates incubated at 25°C for 72 hours for the differentiation of the rescued amastigotes to promastigotes. Following incubation, the amastigotes were subjected to MTT assay and the absorbance obtained were used to estimate IC50 values of the compounds against the amastigote forms.

[4] = RAW264.7, intracellular amastigotes in RAW 264.7 cells, 48 hours, read-out: Amastigotes IC50 (μM) ± SD

| SMILES | Selectivity Index (CC50/IC50), promastigotes [1] | IC50 ([1]; MTT, 72 hours at 25°C) [µM] | CC50 at 48 h ([2]; Raw 264.7 macrophage cells) [µM] | Selectivity Index (CC50/IC50), amastigotes [3] | IC50 [3, 4] [µM] | CC50 at 48 h [2] [µM] | IC50 ([3]; RAW264.7, 48 h, intracellular amastigotes in RAW 264.7 cells, 48 hours, read-out: Amastigotes IC50 (μM) ± SD) [µM] | IC50 ([1]; 72 h) [µM] | IC50 ([3]; RAW264.7, 48 h, read-out: Amastigotes IC50 (μM) ± SD, intracellular amastigotes in RAW 264.7 cells, 48 hours) [µM] |
| --- | --- | --- | --- | --- | --- | --- | --- | --- | --- |
| O=C(O)/C=C/c1ccc(O)c(O)c1 [Caffeic acid, caffeic acid] | 2.21 | 58.77 ± 0.01 | 129.92 ± 0.01 | 2.29 | 56.77 ± 0.01 |  |  |  |  |
| O=C(/C=C/c1ccc(O)c(O)c1)O[C@@H]1C[C@](O)(C(=O)O)C[C@@H](O)[C@H]1O [Chlorogenic acid, chlorogenic acid] | 1.11 | 53.92 ± 0.03 | 59.9 ± 0.02 | 1.11 | 53.75 ± 0.4 |  |  |  |  |
| COc1cc(/C=C/C(=O)O)ccc1O [Ferulic acid, ferulic acid] | 5.02 | 69 ± 0.01 |  | 6.30 |  | 346.7 ± 0.01 | 54.98 ± 0.01 |  |  |
| O=C(O)c1cc(O)c(O)c(O)c1 [Gallic acid, gallic acid] | 0.17 | 198 ± 0.03 |  | 0.60 | 54.65 ± 0.25 | 33.76 ± 0.02 |  |  |  |
| O=C(O)c1ccc(O)c(O)c1 [Protocatechuic acid, protocatechuic acid] | 7.05 |  |  |  |  | 511.9 ± 0.01 |  | 72.54 ± 0.01 | > 100 |
| O=C(O)c1ccccc1O [Salicylic acid, salicylic acid] | 0.83 | 75.4 ± 0.02 | 62.99 ± 0.01 | 0.69 | 90.65 ± 0.04 |  |  |  |  |
| COc1cc(C(=O)O)ccc1O [Vanillic acid, vanillic acid] | 0.19 | 68.97 ± 0.02 |  | 0.19 | 69.97 ± 0.02 | 13.15 ± 0.01 |  |  |  |
| O=C(O)C=Cc1ccc(O)cc1 [p-Coumaric acid] | 4.24 | 76.09 ± 0.01 |  |  | > 100 | 322.6 ± 0.15 |  |  |  |
